We go through 4 molecules from patent US9579334B2, “Iminosugars and methods of treating viral diseases” (Emergent Virology LLC, priority 2009, dated 2017).

Bounds are passed on as bounds.

The test system of one data set is Dengue 2 strain S221. The experiment in a line: Protection of AG129 mice against Dengue virus (survival). It counts as in vivo. How it is done:
FIGS. 10 and 11 A-C show protection of mice against Dengue virus by UV-4 (N9-DNJ). In this model, AG129 mice, which are 129/Sv mice lacking receptors for both alpha/beta interferon and IFN-gamma, are infected with Dengue 2 strain S221 via intravenous injection. The mice die of TNF-a mediated acute/early death 4-5 days after infection, see Shresta, S., et al., J Virol, 2006. 80(20): p. 10208-17. Each experiment group contained 5 mice sex matched and 5-6 weeks old. The mice were injected intravenously via the tail vein with 10^11 genomic equivalents of DENV2 strain S221 30 min after the first N9-DNJ dose was administered orally. The N9-DNJ was administered orally twice daily at 200, 100, 50 and 10 mg/kg. The antiviral compound Ribavirin 100 mg/kg was given subcutaneously once daily and included as a positive control together with a PBS-only group. Animals displaying severe illness during the experiment (as determined by 20% weight loss, extreme lethargy, ruffled coat, or paralysis) were euthanized.

The subject of a further data set is Vero cells. The experiment in a line: Cytotoxicity towards Vero cells, LDH assay. It counts as cell-based, African green monkey. Conditions: for toxicity to the Vero cells: 0.122 up to 500 uM. On the procedure: Procedure. NB-DNJ, NN-DNJ and N7-O-DNJ at concentrations from 0.122 up to 500 uM were tested for cytotoxicity towards Vero cells. Vero cells (Afrika green monkey kidney epithelial cell line) obtained from American Type Culture Collection (ATCC, Manassas, Va.) were plated in cell culture treated 96-well flat bottom plates 24 hr prior to assay. Test were done in modified Eagle medium, supplemented with 2% fetal bovine serum, 2 mM L-glutamine, 100 U/ml penicillin, 100 ug/ml streptomycin, starting at 500 μM compounds, decreasing to 0.122 uM. Cells were cultured at 37° C., 5% CO2 incubator and the plates were assayed by LDH assay (CytoTox96, Promega, Wis.) according to the manufacturer's recommendations for induced cellular damage (release of cytoplasmic enzyme lactate dehydrogenase). OD readings were used to calculate and compare percent cytopathic effect of cells treated with compounds or controls. […] NN-DNJ begins to show toxicity to the cells at concentrations above ˜20 uM.

For `COCCCCCCCCCN1C[C@H](O)[C@@H](O)[C@H](O)[C@H]1CO` [N9-DNJ, N-(9-Methoxynonyl) deoxynojirimycin], the “survival, p vs. PBS” value in the data set with Dengue 2 strain S221 (10 mg/kg orally twice daily) came to 0.034; in the data set on Dengue 2 strain S221 (100 mg/kg orally twice daily) it was 0.002. In addition, the survival entry with Dengue 2 strain S221 (DENV2 S221 i.v., orally twice daily at 200, 100, 50 and 10 mg/kg, all drug concentrations) was “statistically significant improvement in survival”.

Consider `CCCCN1C[C@H](O)[C@@H](O)[C@H](O)[C@H]1CO` [NB-DNJ, N-Butyl deoxynojirimycin], for which the “toxicity to the Vero cells” value in the data set on Vero cells was “non-toxic”.

For the molecule `CCCOCCCCCCN1C[C@H](O)[C@@H](O)[C@H](O)[C@H]1CO` [N7-O-DNJ, N-(7-Oxadecyl)deoxynojirimycin], in the data set on Vero cells, the “toxicity to the Vero cells” value is “non-toxic”.

In the case of `CCCCCCCCCN1C[C@H](O)[C@@H](O)[C@H](O)[C@H]1CO` [NN-DNJ, N-Nonyl dexoynojirimycin], in the data set on Vero cells (Vero cells), the “concentration above which toxicity to the cells begins to show” value was more than 20 µM.
